Patent US20110117168A1, “METHODS AND COMPOSITIONS FOR SOFT TISSUE REPAIR” (AFFINERGY, INC., priority 2009, published 2011)
Ends that are not written are not given here.

System: UASMCs
Assay: Biotinylated peptide binding to endothelial and other cells by flow cytometry
Type: cell-based
Conditions: biotinylated peptide 10 μM, 30 min at 4° C.
Protocol: The synthetic biotinylated binding peptide SEQ ID NO: 4 was further examined for its ability to bind endothelial cells compared to other cell types (see FIG. 16). […] ECFCs are clonally expanded cells isolated from human umbilical cord blood, and are considered highly proliferative endothelial progenitor cells (EPCs) based on their clonogenic and proliferative potential. In another experiment, binding peptide SEQ ID NO: 4 was assayed for its ability to selectively isolate endothelial cells versus smooth muscle cells in the presence of whole blood. HUVECs or UASMCs were incubated in the presence of medium containing 20% whole blood and binding peptide SEQ ID NO: 4-conjugated magnetic beads (via biotin-SA) for 30 min. The solutions containing the bead-peptide-cell complexes were then passed through a […] LS column in a magnetic field. The column was washed, and the remaining peptide-bound cells were then released from the magnetic field and counted.

SSFWDVCQGDGTCYGGGSR (SSFWDVCQGDGTCYGGGSRGSSG-{K(biotin)}; cysteine pairing not given here) [SEQ ID NO: 4, tested biotinylated with GSSGK(biotin) or other spacer at the C-terminus]
cross-reactivity with UASMCs: weakly
